Numbers after ± are expanded uncertainties.
Experiment: xn = mol fraction of the nth substance listed
Conditions: 101 kPa, Liquid; for mass density: Vibrating tube method

CC(C)CCO [3-methylbutan-1-ol] + CCO
Conditions	kinematic viscosity, 308.15 K [m2/s]	kinematic viscosity, 313.15 K [m2/s]	kinematic viscosity, 318.15 K [m2/s]	kinematic viscosity, 323.15 K [m2/s]	mass density, 313.15 K [kg/m3]	mass density, 318.15 K [kg/m3]	mass density, 323.15 K [kg/m3]
x1 = 0.0268	–	–	–	–	773.2 ± 1	769 ± 1	764.6 ± 1
x1 = 0.0549	–	–	–	–	774.2 ± 1	770 ± 1	765.7 ± 1
x1 = 0.0845	–	–	–	–	775.2 ± 1	771 ± 1	766.7 ± 1
x1 = 0.0915	1.17e-06 ± 5.7e-08	1.07e-06 ± 5.2e-08	9.8e-07 ± 4.8e-08	8.72e-07 ± 4.4e-08	–	–	–
x1 = 0.1156	–	–	–	–	776.2 ± 1	772 ± 1	767.8 ± 1
x1 = 0.1484	–	–	–	–	777.2 ± 1	773.1 ± 1	768.9 ± 1
x1 = 0.1753	1.22e-06 ± 5.9e-08	1.12e-06 ± 5.4e-08	1.03e-06 ± 5.1e-08	9.13e-07 ± 4.6e-08	–	–	–
x1 = 0.183	–	–	–	–	778.2 ± 1	774.1 ± 1	769.9 ± 1
x1 = 0.2524	1.27e-06 ± 6.1e-08	1.17e-06 ± 5.7e-08	1.07e-06 ± 5.2e-08	9.53e-07 ± 4.7e-08	–	–	–
x1 = 0.2584	–	–	–	–	780.3 ± 1	776.3 ± 1	772.1 ± 1
x1 = 0.3235	1.33e-06 ± 6.4e-08	1.22e-06 ± 5.9e-08	1.12e-06 ± 5.4e-08	9.96e-07 ± 4.9e-08	–	–	–
x1 = 0.3433	–	–	–	–	782.4 ± 1	778.4 ± 1	774.3 ± 1
x1 = 0.3894	1.4e-06 ± 6.7e-08	1.28e-06 ± 6.1e-08	1.17e-06 ± 5.7e-08	1.05e-06 ± 5.1e-08	–	–	–
x1 = 0.4395	–	–	–	–	784.6 ± 1	780.6 ± 1	776.6 ± 1
x1 = 0.4505	1.47e-06 ± 7e-08	1.35e-06 ± 6.4e-08	1.23e-06 ± 5.9e-08	1.1e-06 ± 5.4e-08	–	–	–
x1 = 0.5495	–	–	–	–	786.7 ± 1	782.8 ± 1	778.9 ± 1
x1 = 0.5605	1.65e-06 ± 7.7e-08	1.51e-06 ± 7.1e-08	1.37e-06 ± 6.5e-08	1.23e-06 ± 5.9e-08	–	–	–
x1 = 0.6567	1.86e-06 ± 8.6e-08	1.69e-06 ± 7.9e-08	1.54e-06 ± 7.2e-08	1.39e-06 ± 6.6e-08	–	–	–
x1 = 0.6765	–	–	–	–	788.9 ± 1	785.1 ± 1	781.2 ± 1
x1 = 0.7416	2.1e-06 ± 9.6e-08	1.9e-06 ± 8.8e-08	1.72e-06 ± 8e-08	1.55e-06 ± 7.3e-08	–	–	–
x1 = 0.817	2.37e-06 ± 1.1e-07	2.13e-06 ± 9.8e-08	1.92e-06 ± 8.9e-08	1.72e-06 ± 8e-08	–	–	–
x1 = 0.8247	–	–	–	–	791 ± 1	787.3 ± 1	783.4 ± 1
x1 = 0.8844	2.66e-06 ± 1.2e-07	2.38e-06 ± 1.1e-07	2.13e-06 ± 9.8e-08	1.9e-06 ± 8.8e-08	–	–	–
x1 = 0.9451	2.98e-06 ± 1.3e-07	2.66e-06 ± 1.2e-07	2.36e-06 ± 1.1e-07	2.09e-06 ± 9.6e-08	–	–	–
x1 = 1	3.33e-06 ± 1.5e-07	2.94e-06 ± 1.3e-07	2.59e-06 ± 1.2e-07	2.29e-06 ± 1e-07	793.2 ± 1	789.5 ± 1	785.7 ± 1

Reference: the NIST ThermoML archive (doi:10.1021/je050416y)
